{"source": "paper PMC7180456", "about": "“Multitarget Anticancer Agents Based on Histone Deacetylase and Protein Kinase CK2 Inhibitors” (Molecules, 2020)", "origin": "cited, not measured here", "key": {"CK2": {"system": "CK2", "settings": "Figure 3; read-out: CK2 IC50 of previously described dual inhibitors; cited from earlier work"}, "HDAC1": {"system": "HDAC1", "set-up": "method as in doi:10.1039/C6RA09717K", "settings": "Figure 3; read-out: HDAC1 IC50 of previously described dual inhibitors; cited from earlier work"}, "two mammalian cell lines": {"system": "two mammalian cell lines", "set-up": "method as in doi:10.1039/C6RA09717K", "settings": "cited from earlier work"}, "HDAC-6": {"target": "HDAC-6", "settings": "Figure 4; read-out: Ki, HDAC-6 inhibitor; cited from earlier work"}, "HDAC": {"system": "HDAC", "set-up": "method as in PMID 29733427", "settings": "Figure 2; read-out: IC50 of FDA-approved HDAC inhibitors; cited from earlier work"}, "HL-60/adr line": {"system": "HL-60/adr line", "set-up": "method as in PMID 17904109", "settings": "cited from earlier work"}, "HL-60/vinc line": {"system": "HL-60/vinc line", "set-up": "method as in PMID 17904109", "settings": "cited from earlier work"}}, "data": [{"smiles": "O=C(CCn1cc(CCn2nnc3c(Br)c(Br)c(Br)c(Br)c32)nn1)NO", "note": "[Compound 1]", "values": [{"measurement": "IC50", "setting": "CK2", "value": 5400, "unit": "nM"}, {"measurement": "IC50", "setting": "HDAC1", "value": 5000, "unit": "nM"}]}, {"smiles": "O=C(CCn1cc(CCn2nc3c(Br)c(Br)c(Br)c(Br)c3n2)nn1)NO", "note": "[Compound 2]", "values": [{"measurement": "IC50", "setting": "CK2", "value": 50000, "unit": "nM"}, {"measurement": "IC50", "setting": "HDAC1", "value": 2200, "unit": "nM"}, {"measurement": "cytotoxic activity LC50", "setting": "two mammalian cell lines", "value": "low micromolar"}]}, {"smiles": "CN1C(=O)C2Cc3c(c4ccccc4n3Cc3ccc(C(=O)NO)cc3)C(C2)C1=O", "note": "(stereo not shown) [Marbostat-100]", "values": [{"measurement": "Ki", "setting": "HDAC-6", "value": 0.7, "unit": "nM"}]}, {"smiles": "Cc1[nH]c2ccccc2c1CCNCc1ccc(/C=C/C(=O)NO)cc1", "note": "[Panobinostat]", "values": [{"measurement": "IC50", "setting": "HDAC", "value": "5 to 20", "unit": "nM"}]}, {"smiles": "C/C=C1\\NC(=O)[C@H]2CSSCC/C=C/[C@H](CC(=O)N[C@H](C(C)C)C(=O)N2)OC(=O)[C@H](C(C)C)NC1=O", "note": "[Romidepsin]", "values": [{"measurement": "IC50", "setting": "HDAC", "value": 36, "unit": "nM"}]}, {"smiles": "COc1cccc2c1C(=O)c1c(O)c3c(c(O)c1C2=O)C[C@@](O)(C(=O)CO)C[C@@H]3O[C@H]1C[C@H](N)[C@H](O)[C@H](C)O1", "note": "[doxorubicin]", "values": [{"measurement": "resistance of the MDR cell model to the drug", "setting": "HL-60/adr line", "value": 80, "unit": "fold"}, {"measurement": "resistance of the MDR cell model to the drug", "setting": "HL-60/vinc line", "value": 140, "unit": "fold"}]}]}
